Reference: US11667602B2, “Compounds and their use” (AstraZeneca AB, priority 2020, dated 2023)
Where two headings read alike, the source gives them in different places.

Molecular target: T1, human RXFP1 (Homo sapiens, UniProt Q9HBX9)
T1 sequence (Q9HBX9 1-757): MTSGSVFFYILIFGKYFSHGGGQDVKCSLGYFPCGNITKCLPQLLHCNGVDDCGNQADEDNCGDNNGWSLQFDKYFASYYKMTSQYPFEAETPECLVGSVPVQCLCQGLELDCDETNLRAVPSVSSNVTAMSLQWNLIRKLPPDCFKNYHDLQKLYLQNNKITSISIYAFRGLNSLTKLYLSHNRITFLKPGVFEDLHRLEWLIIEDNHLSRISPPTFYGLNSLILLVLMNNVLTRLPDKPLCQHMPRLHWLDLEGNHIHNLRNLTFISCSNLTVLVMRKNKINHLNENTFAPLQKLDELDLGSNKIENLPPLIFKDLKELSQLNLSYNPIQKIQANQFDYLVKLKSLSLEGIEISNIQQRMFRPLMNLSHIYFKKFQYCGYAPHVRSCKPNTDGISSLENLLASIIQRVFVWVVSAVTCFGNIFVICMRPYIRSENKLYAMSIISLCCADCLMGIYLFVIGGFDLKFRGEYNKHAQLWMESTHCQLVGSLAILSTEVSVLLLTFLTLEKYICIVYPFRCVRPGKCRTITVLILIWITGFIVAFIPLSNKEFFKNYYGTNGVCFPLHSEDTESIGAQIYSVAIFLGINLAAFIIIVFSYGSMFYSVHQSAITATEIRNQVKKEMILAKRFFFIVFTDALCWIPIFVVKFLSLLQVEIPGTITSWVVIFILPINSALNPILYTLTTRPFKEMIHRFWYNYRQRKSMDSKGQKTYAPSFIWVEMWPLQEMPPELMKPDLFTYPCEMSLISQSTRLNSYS
Test: RXFP1 Hu cAMP (Test A)
Type: cell-based
Design: expressed in transfected cells; host or cells: Jump-In T-REx CHO-K1 cells (ThermoFisher), induced with 10 ng/ml doxycycline for 24 h
Outline: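 Cells: CHO-K1 stably carrying human RXFP1, expressed after 24 h 10 ng/ml doxycycline; 0.5 mM IBMX final, HTRF detection after 2 h at room temperature.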

[1] = RXFP1 Hu cAMP, read-out: Test A EC50

Test A Sinf (RXFP1 Hu cAMP) [%]	EC50 [1] [nM]	Molecule	EC50 (Test A EC50, RXFP1 Hu cAMP) [nM]
75	1200	COc1cc(F)c(-c2cccc(C(=O)O)c2)cc1C(=O)N[C@@H]1CCC[C@@H]1C(=O)Nc1cccc(S(=O)(=O)C(F)(F)F)c1 [Example 317, 2′-Fluoro-4′-methoxy-5′-(((1R,2S)-2-((3-((trifluoromethyl)sulfonyl)phenyl)carbamoyl)cyclopentyl)carbamoyl)-[1,1′-biphenyl]-3-carboxylic acid]	–
92	160	COc1cc(F)c(O[C@H]2CC[C@@](C)(C(=O)O)CC2)cc1C(=O)N[C@@H]1[C@H]2CC[C@H](C2)[C@@H]1C(=O)N[C@H]1CCCN(S(=O)(=O)C(F)(F)F)C1 [Example 607]	–
103	–	COc1cc(F)c(O[C@H]2CC[C@@](F)(C(=O)O)CC2)cc1C(=O)N[C@@H]1[C@H]2CC[C@H](C2)[C@@H]1C(=O)NCC1(C)CCC1 [Example 415]	–
93	240	COc1cc(F)c(OC2CCC(CO)(C(=O)O)CC2)cc1C(=O)N[C@H]1[C@H]2CC[C@H](C2)[C@H]1C(=O)Nc1cccc(S(=O)(=O)C(F)(F)F)c1 (relative stereo) [Example 585, (1R,4s)-4-(2-Fluoro-4-methoxy-5-(((1S*,2S*,3R*,4R*)-3-((3-((trifluoromethyl)sulfonyl)phenyl)carbamoyl)bicyclo[2.2.1]heptan-2-yl)carbamoyl)phenoxy)-1-(hydroxymethyl)cyclohexane-1-carboxylic acid]	–
101	2000	COc1cc(F)c(O[C@H]2CC[C@@](C)(C(=O)O)CC2)cc1C(=O)N[C@@H]1[C@H]2CC[C@H](C2)[C@@H]1C(=O)N[C@@H](C)C(C)(C)C#N [Example 616]	–
98	–	COc1cc(C#N)c(O[C@H]2CC[C@@](C)(C(=O)O)CC2)cc1C(=O)N[C@H]1[C@@H](C(=O)NCC2(C)CCC2)[C@H]2CC[C@@H]1O2 (racemic) [Example 333]	–
71	990	COc1cc(C#N)c(O[C@H]2CC[C@@](C)(C(=O)O)CC2)cc1C(=O)N[C@@H]1[C@H]2CC[C@H](C2)[C@@H]1C(=O)N[C@@H](C)C(C)C [Example 127]	–
–	> 40000	COc1cc(F)c(O[C@H]2CC[C@@](C)(C(=O)O)CC2)cc1C(=O)N[C@@H]1CCN(C(C)=O)C[C@@H]1C(=O)Nc1cccc(S(=O)(=O)C(F)(F)F)c1 (racemic) [Example 487, (1R,4s)-4-(5-(((3RS,4SR)-1-Acetyl-3-((3-((trifluoromethyl)sulfonyl)phenyl)carbamoyl)piperidin-4-yl)carbamoyl)-2-fluoro-4-methoxyphenoxy)-1-methylcyclohexane-1-carboxylic acid]	–
29	–	COc1cc(F)c(-c2nc(C(=O)O)cs2)cc1C(=O)N[C@H]1[C@@H](C(=O)Nc2cccc(S(=O)(=O)C(F)(F)F)c2)[C@@H]2C=C[C@H]1C2 (racemic) [Example 286]	–
95	–	COC(=O)[C@]1(C(=O)O)CC[C@@H](Oc2cc(C(=O)N[C@@H]3[C@H]4CC[C@H](C4)[C@@H]3C(=O)NCC3(C)CCC3)c(OC(C)C)cc2F)CC1 [Example 485, (1R,4r)-4-(2-Fluoro-4-isopropoxy-5-(((1S,2R,3S,4R)-3-(((1-methylcyclobutyl)methyl)carbamoyl)bicyclo[2.2.1]heptan-2-yl)carbamoyl)phenoxy)-1-(methoxycarbonyl)cyclohexane-1-carboxylic acid]	–
99	94	COc1cc(F)c(O[C@H]2CC[C@@](C)(C(=O)O)CC2)cc1C(=O)N[C@@H]1[C@H]2CC[C@H](C2)[C@@H]1C(=O)NC(C)(C)C(F)(F)F [Example 603]	–
110	–	COc1cc(F)c(-c2cncc(C(=O)O)c2)cc1C(=O)N[C@H]1[C@@H](C(=O)Nc2cccc(S(=O)(=O)C(F)(F)F)c2)[C@@H]2C=C[C@H]1C2 (racemic) [Example 228]	–
103	–	COc1cc(F)c(O[C@H]2CC[C@@](CO)(C(=O)O)CC2)cc1C(=O)N[C@H]1[C@@H](C(=O)NCC2(C)CCC2)[C@H]2CC[C@@H]1O2 (racemic) [Example 332]	–
125	1.1	COc1cc(F)c(O[C@H]2CC[C@@](C)(C(=O)O)CC2)cc1C(=O)N[C@@H]1[C@@H]2CC[C@@H](C2)[C@@H]1C(=O)Nc1ccc(F)c(S(F)(F)(F)(F)F)c1 (racemic) [Example 371]	–
105	–	COc1cc(F)c(-c2cccc(C(=O)O)c2F)cc1C(=O)N[C@H]1[C@@H](C(=O)Nc2cccc(S(=O)(=O)C(F)(F)F)c2)[C@@H]2C=C[C@H]1C2 (racemic) [Example 233]	–
69	–	COc1cc(F)c(-c2ccc(C(=O)O)cc2)cc1C(=O)N[C@@H]1CC[C@@H]1C(=O)Nc1cccc(S(=O)(=O)C(F)(F)F)c1 (racemic) [Example 301]	–
98	320	COc1cc(F)c(O[C@H]2CC[C@@](OC)(C(=O)O)CC2)cc1C(=O)N[C@@H]1[C@H]2CC[C@H](C2)[C@@H]1C(=O)NCC1(C)CCC1 [Example 506, (1R,4r)-4-(2-Fluoro-4-methoxy-5-(((1S,2R,3S,4R)-3-(((1-methylcyclobutyl)methyl)carbamoyl)bicyclo[2.2.1]heptan-2-yl)carbamoyl)phenoxy)-1-methoxycyclohexane-1-carboxylic acid]	–
128	9200	COc1cc(F)c(O[C@H]2CC[C@@](C)(C(=O)O)CC2)cc1C(=O)NC1CCC1C(=O)Nc1ccc(F)c(S(F)(F)(F)(F)F)c1 (single isomer, unassigned) [Example 570, (1R,4s)-4-(2-Fluoro-5-(((1S*,2R*)-2-((4-fluoro-3-(pentafluoro-λ6-sulfaneyl)phenyl)carbamoyl)cyclobutyl)carbamoyl)-4-methoxyphenoxy)-1-methylcyclohexane-1-carboxylic acid]	–
147	120	CCC(CC)CNC(=O)c1ccc(C)cc1NC(=O)c1cc(O[C@H]2CC[C@@](C)(C(=O)O)CC2)c(C#N)cc1OC [Example 167]	–
–	> 40000	COc1cc(F)c(O[C@H]2CC[C@@](C)(C(=O)O)CC2)cc1C(=O)N[C@H]1[C@@H](C(=O)Nc2cccc(S(=O)(=O)C(F)(F)F)c2)CC[C@H]1OC (racemic) [Example 397, (1R,4s)-4-(2-Fluoro-4-methoxy-5-(((1SR,2RS,5SR)-2-methoxy-5-((3-((trifluoromethyl)sulfonyl)phenyl)carbamoyl)cyclopentyl)carbamoyl)phenoxy)-1-methylcyclohexane-1-carboxylic acid]	–
125	78	COc1cc(C#N)c(O[C@H]2CC[C@@](C)(C(=O)O)CC2)cc1C(=O)Nc1cc(Cl)ccc1C(=O)NC[C@H]1C[C@@H](C)C1 [Example 159]	–
109	76	COc1cc(F)c(O[C@H]2CC[C@@](C)(C(=O)O)CC2)cc1C(=O)N[C@@H]1[C@H]2CC[C@H](C2)[C@@H]1C(=O)NCC1(C(F)(F)F)CCC1 [Example 613]	–

Molecule	Test A Sinf (RXFP1 Hu cAMP) [%]	EC50 [1] [nM]	EC50 (Test A EC50, RXFP1 Hu cAMP) [nM]
CC1(CNC(=O)[C@H]2[C@@H]3CC[C@@H](C3)[C@H]2NC(=O)c2ccc(F)c(O[C@H]3CC[C@@](C)(C(=O)O)CC3)c2)CCC1 [Example 400]	91	–	180
(1R,4s)-4-(2-fluoro-5-(((1S*,2S*,3R*,4R*)-3-((4-fluoro-3-(pentafluoro-λ6-sulfaneyl)phenyl)carbamoyl)bicyclo[2.2.1]heptan-2-yl)carbamoyl)-4-methoxyphenoxy)-1-methylcyclohexane-1-carboxylic acid [Example 521]	99	–	–
